# Source: ChEMBL document CHEMBL3745636, “Dibenz[b,f]oxepin and Antimycobacterial Chalcone Constituents of Empetrum nigrum” (J Nat Prod, 2015)
# What was measured:
# [1] = system: Mycobacterium tuberculosis; assay: Antimycobacterial activity against Mycobacterium tuberculosis H37Ra ATCC 25177 assessed as growth inhibition after 24 to 168 hrs by microplate resazurin assay; format: functional, organism-based
# HEK293 = assay: Cytotoxicity against human HEK293 cells assessed as cell viability after 24 hrs by cell titer-blue assay; format: cell-based; conditions: HEK293, 24 h
Structure (SMILES),IC50 [1] [µM],MIC90 [1] [µM],IC50 (HEK293) [µM]
COc1cc(CCc2ccccc2O)cc(OC)c1OC,179,694,113
COc1c(O)cc2c(c1OC)Oc1ccccc1CC2,94.4,367,167
O=C(CCc1ccccc1)c1ccc(O)cc1O,32.8,206,249
COc1cc2c(c(O)c1OC)Oc1ccccc1CC2,105,367,355
COc1c(O)cc2c(c1OC)-c1c(O)cccc1CC2,113,734,289
COc1cc(CCc2ccccc2O)cc(O)c1OC,900,> 1460,298
CC1(C)CC[C@]2(C(=O)O)CC[C@]3(C)C(=CC[C@@H]4[C@@]5(C)CC[C@H](O)C(C)(C)[C@@H]5CC[C@]43C)[C@@H]2C1 [OLEANOLIC_ACID],214,> 876,329
CC1(C)CC[C@]2(CO)CC[C@]3(C)C(=CC[C@@H]4[C@@]5(C)CC[C@H](O)C(C)(C)[C@@H]5CC[C@]43C)[C@@H]2C1 [ERYTHRODIOL],157,> 903,613
"O=C(/C=C/c1ccccc1)c1ccc(O)cc1O [2',4'-DIHYDROXYCHALCONE]",23.8,104,109
